Values after ≈ are worked out from the molar mass of the structure shown.
Key:
[1] = system: HIV-1 (RF); assay: HIV RNA assay: microplate based compound evaluation in HIV-1 infected MT-2 cells; format: cell-based; details: Human immunodeficiency virus 1, MT2, 72 h; HIV-1 (RF) infected MT-2 cells, 3 days of culture; virus dilution selected to standardize the inoculum; read-out: IC90 value (concentration of compound required to reduce the HIV RNA level by 90%)
Description: Plasmid pDAB 72 containing both gag and pol sequences of BH10 (bp 113-1816) cloned into PTZ 19R was prepared according to Erickson-Viitanen et al. AIDS Research and Human Retroviruses 1989, 5, 577. The plasmid was linearized with Bam HI prior to the generation of in vitro RNA transcripts using the Riboprobe Gemini system II kit (Promega) with T7 RNA polymerase. Synthesized RNA was purified by treatment with RNase free DNAse (Promega), phenol-chloroform extraction, and ethanol precipitation. RNA transcripts were dissolved in water, and stored at −70° C. The concentration of RNA was determined from the A260.
Biotinylated capture probes were purified by HPLC after synthesis on an Applied Biosystems (Foster City, Calif.) DNA synthesizer by addition of biotin to the 5′ terminal end of the oligonucleotide, using the biotin-phosphoramidite reagent of Cocuzza, Tet. Lett. 1989, 30, 6287. […]
MT-2 and MT-4 cells were maintained in RPMI 1640 supplemented with 5% fetal calf serum (FCS) for MT-2 cells or 10% FCS for MT-4 cells, 2 mM L-glutamine and 50 μg/mL gentamycin, all from Gibco. […] Infectious titers of HIV-1(RF) stocks were 1-3×10^7 PFU (plaque forming units) /mL as measured by plaque assay on MT-2 cells (see below). […]

| melting point | IC90 [1] | SMILES |
| --- | --- | --- |
| 129 to 131 °C | – | CCCCN1C(=O)N(Cc2ccc3[nH]nc(N)c3c2)[C@H](Cc2ccccc2)[C@H](O)[C@@H](O)[C@H]1Cc1ccccc1 [Example 1, (4R,5S,6S,7R)-Hexahydro-1-[5-(3-aminoindazole)methyl]-3-butyl-5,6-dihydroxy-4,7-bis[phenylmethyl]-2H-1,3-diazapin-2-one] |
| – | 0.2 µg/mL (≈ 0.947 µM) | Nc1ccn([C@H]2CC[C@@H](CO)O2)c(=O)n1 [ddC, dideoxycytidine] |
